Results from US6413541B1, “Disintegrating tablet in oral cavity and production thereof” (Dainippon Pharmaceutical Co., Ltd., priority 2000, dated 2002).
Where two headings read alike, the source gives them in different places.

Key:
[1] = Description: These saccharides can be used alone or in a mixture of two or more of these saccharides, and can usually be contained in an amount of about 0.1 to about 20% by weight, preferably in an amount of about 0.5 to about 10% by weight in the present tablet.
Purified water at 25° C. (20 ml) was put into a beaker, and thereto was added each saccharide under stirring. Xylitol, sorbitol, glucose and sucrose were added in portions of 1 g, and erythritol was added in portions of 0.5 g, and lactose and mannitol were added in portions of 0.1 g, each. The mixture was stirred for one hour, and the dissolved amount of each saccharide was determined. The amount dissolving in 100 ml of water was converted and used as solubility of the saccharide in the present specification.

[2] = in 100 ml of purified water at about 25° C.; Merck Index, 12th ed., 10220 (1996); cited from earlier work

Row | Compound | solubility [1] | solubility [2]
1 | OC[C@@H](O)[C@@H](O)CO [erythritol] | about 47.5 g | –
2 | O=C[C@H](O)[C@@H](O)[C@H](O)CO [xylose] | – | about 125 g
3 | OC[C@@H](O)[C@@H](O)[C@H](O)[C@@H](O)CO [sorbitol] | about 130 g | –
4 | OC[C@@H](O)[C@H](O)[C@@H](O)CO [xylitol] | about 135 g | –
5 | OC[C@H]1O[C@@](CO)(O[C@H]2O[C@H](CO)[C@@H](O)[C@H](O)[C@H]2O)[C@@H](O)[C@@H]1O [sucrose] | about 170 g | –
